Our source for the IC50 and EC50 values is US12410160B2 (Gilead Sciences, Inc., priority 2021, dated 2025).

One experiment has as its target human KHK-C (Homo sapiens (Human), UniProt P50053). Kind of experiment: KHK Biochemical Assay (IC50), ADP-Glo, KHK-C. The note with it: ADP-Glo; average of at least two separate assays. The essentials: (§1)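 His-tagged enzyme expressed in BL21 (DE3), Ni-NTA purified. Compounds, serially diluted 1:3 in DMSO, pre-incubated 30 min with enzyme in 50 mM Hepes pH 7.4, 140 mM KCl, 5 mM MgCl2, 0.01% Triton-X, then ATP and fructose added; 4 h at room temperature. ADP formation read by ADP-Glo luminescence.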
(In general: In ADP-Glo the light output rises with the ADP produced.)

In a further experiment the target is human KHK-A (Homo sapiens (Human), UniProt P50053). Kind of experiment: KHK Biochemical Assay (IC50), ADP-Glo, KHK-A. To be noted: ADP-Glo; average of at least two separate assays. The gist of the method: as §1
Sequence of human KHK-A (P50053 other isoform, or with tags, fused parts or gaps): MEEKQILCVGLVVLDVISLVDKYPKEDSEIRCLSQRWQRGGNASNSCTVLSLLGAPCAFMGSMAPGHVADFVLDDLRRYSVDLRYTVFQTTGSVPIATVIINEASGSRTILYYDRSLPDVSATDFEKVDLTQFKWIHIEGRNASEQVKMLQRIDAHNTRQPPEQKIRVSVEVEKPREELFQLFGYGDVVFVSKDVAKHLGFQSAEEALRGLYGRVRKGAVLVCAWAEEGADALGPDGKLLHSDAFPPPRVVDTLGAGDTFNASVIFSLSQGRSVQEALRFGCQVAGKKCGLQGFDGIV
Experiment [1] deals with KHK-C expressed in NRK-52E cells (Homo sapiens (Human), UniProt P50053). Kind of experiment: KHK-C Cell-based Assay (EC50), NRK CTG, fructose-mediated ATP-depletion.
Sequence of KHK-C expressed in NRK-52E cells (P50053 whole entry): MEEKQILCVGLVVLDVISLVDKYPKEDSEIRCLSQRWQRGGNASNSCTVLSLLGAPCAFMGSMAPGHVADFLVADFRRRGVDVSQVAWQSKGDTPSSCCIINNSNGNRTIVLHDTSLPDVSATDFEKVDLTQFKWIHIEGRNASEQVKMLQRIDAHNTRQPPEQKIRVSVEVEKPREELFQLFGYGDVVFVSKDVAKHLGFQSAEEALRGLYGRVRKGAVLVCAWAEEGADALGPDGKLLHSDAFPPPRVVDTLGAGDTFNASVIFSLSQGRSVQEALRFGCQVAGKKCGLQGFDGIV

Sequence of human KHK-C (P50053 whole entry): as above

As usually defined, the IC50 is the concentration at which inhibition is half-maximal. As usually defined, the EC50 is the concentration needed to bring the measured effect to its halfway point. Take `C[C@H]1CCN1c1nc2c(c(-c3ccc4c(c3)OCCNC4=O)n1)CCC2` [Example 149, (S)-8-(2-(2-methylazetidin-1-yl)-6,7-dihydro-5H-cyclopenta[d]pyrimidin-4-yl)-3,4-dihydrobenzo[f][1,4]oxazepin-5(2H)-one]: the half-inhibitory concentration (IC50) at human KHK-C was determined as 6.7 nM; on human KHK-A it was 33.2 nM. It took 18.8 nM to reach a half-maximal effect in experiment [1] (EC50).
On the same counts, the results for `C[C@H]1CCN1c1nc2c(c(-c3ccc4c(c3)C(=O)NCCO4)n1)CCC2` [Example 150, (S)-7-(2-(2-methylazetidin-1-yl)-6,7-dihydro-5H-cyclopenta[d]pyrimidin-4-yl)-3,4-dihydrobenzo[f][1,4]oxazepin-5(2H)-one] are 33.1 nM, 32.2 nM and 73.2 nM.
With `C[C@H]1CCN1c1nc2c(c(-c3cc4ccccc4[nH]3)n1)CCC2` [Example 151, (S)-4-(1H-indol-2-yl)-2-(2-methylazetidin-1-yl)-6,7-dihydro-5H-cyclopenta[d]pyrimidine], the IC50 against human KHK-C is 3890 nM; against human KHK-A, 4980 nM. Also, the concentration giving a half-maximal response (EC50) in experiment [1] amounted to 1360 nM.
On the same counts, the results for `C[C@H]1CCN1c1nc2c(c(-c3cc4cc(C(N)=O)ccc4[nH]3)n1)CCC2` [Example 152, (S)-2-(2-(2-methylazetidin-1-yl)-6,7-dihydro-5H-cyclopenta[d]pyrimidin-4-yl)-1H-indole-5-carboxamide] are 94 nM, 63.6 nM and 200 nM.
For `C[C@H]1CCN1c1nc2c(c(-c3cc4cc(C(=O)O)ccc4[nH]3)n1)CCC2` [Example 153, (S)-2-(2-(2-methylazetidin-1-yl)-6,7-dihydro-5H-cyclopenta[d]pyrimidin-4-yl)-1H-indole-5-carboxylic acid], the concentration for half-maximal inhibition (IC50) against human KHK-C came to 66.6 nM; on human KHK-A it was 186 nM. Further, in experiment [1], the EC50 is 4000 nM.
In the case of `C[C@H]1CCN1c1nc2c(c(-c3cc4cccc(C(N)=O)c4[nH]3)n1)CCC2` [Example 154, (S)-2-(2-(2-methylazetidin-1-yl)-6,7-dihydro-5H-cyclopenta[d]pyrimidin-4-yl)-1H-indole-7-carboxamide], the half-maximal inhibitory concentration (IC50) at human KHK-C worked out at 90.4 nM; on human KHK-A, 45.8 nM. For the same compound, a half-maximal response in experiment [1] (EC50) required 34 nM.
Turning to `C[C@H]1CCN1c1nc2c(c(-c3cc4c(C(=O)O)cccc4[nH]3)n1)CCC2` [Example 155, (S)-2-(2-(2-methylazetidin-1-yl)-6,7-dihydro-5H-cyclopenta[d]pyrimidin-4-yl)-1H-indole-4-carboxylic acid], the results for the IC50 against human KHK-C and against human KHK-A were 99.5 nM and 232 nM, respectively. In addition, in experiment [1], a half-maximal response (EC50) required 4790 nM.
For `C[C@H]1CCN1c1nc2c(c(-c3cc4c(C(N)=O)cccc4[nH]3)n1)CCC2` [Example 156, (S)-2-(2-(2-methylazetidin-1-yl)-6,7-dihydro-5H-cyclopenta[d]pyrimidin-4-yl)-1H-indole-4-carboxamide] the same measures were 82 nM, 99.9 nM and 145 nM.
On the same counts, the results for `C[C@H]1CCN1c1nc(-c2ccc(C(N)=O)cc2)c2c(n1)C(F)(F)CCC2` [Example 157, (S)-4-(8,8-difluoro-2-(2-methylazetidin-1-yl)-5,6,7,8-tetrahydroquinazolin-4-yl)benzamide] are 211 nM, 125 nM and 291 nM.
For `C[C@H]1[C@H](O)CN1c1nc(-c2ccc(C(N)=O)cc2)c2c(n1)C(F)(F)CCC2` [Example 158] the same measures were 314 nM, 217 nM and 1120 nM.
As to `C[C@H]1CCN1c1nc2c(c(-c3ccc4nc(O)ccc4c3)n1)CCC2` [Example 175, (S)-6-(2-(2-methylazetidin-1-yl)-6,7-dihydro-5H-cyclopenta[d]pyrimidin-4-yl)quinolin-2-ol], the IC50 on human KHK-C came out at 49.8 nM; on human KHK-A it was 66.5 nM. In experiment [1], this compound came in with a half-maximal effective concentration (EC50) of 249 nM.
For `C[C@H]1CCN1c1nc2c(c(-c3ccc4[nH]c(C(N)=O)cc4c3)n1)CCC2` [Example 184, 5-[2-[(2S)-2-methylazetidin-1-yl]-6,7-dihydro-5H-cyclopenta[d]pyrimidin-4-yl]-1H-indole-2-carboxamide] the same measures were 210 nM, 152 nM and 275 nM.
On the same counts, the results for `C[C@H]1CCN1c1nc2c(c(-c3ccc(-c4ncc[nH]4)cc3)n1)CCC2` [Example 185, 4-[4-(1H-imidazol-2-yl)phenyl]-2-[(2S)-2-methylazetidin-1-yl]-6,7-dihydro-5H-cyclopenta[d]pyrimidine] are 48.8 nM, 60.6 nM and 83.9 nM.
For `C[C@H]1CCN1c1nc2c(c(-c3ccc4c(c3)CN(C)C4=O)n1)CCC2` [Example 186, 2-methyl-5-[2-[(2S)-2-methylazetidin-1-yl]-6,7-dihydro-5H-cyclopenta[d]pyrimidin-4-yl]isoindolin-1-one] the same measures were 66.9 nM, 78.2 nM and 143 nM.
Take `C[C@H]1CCN1c1nc2c(c(-c3ccc4c(c3)CNC4=O)n1)CCC2` [Example 187, 5-[2-[(2S)-2-methylazetidin-1-yl]-6,7-dihydro-5H-cyclopenta[d]pyrimidin-4-yl]isoindolin-1-one]: the half-inhibitory concentration (IC50) at human KHK-C was 22.4 nM; at human KHK-A it was 33.3 nM. Also, the EC50 in experiment [1] was 91.6 nM.
Take `C[C@H]1CCN1c1nc2c(c(-c3ccc(S(N)(=O)=O)cc3)n1)CCC2` [Example 189, 4-[2-[(2S)-2-methylazetidin-1-yl]-6,7-dihydro-5H-cyclopenta[d]pyrimidin-4-yl]benzenesulfonamide]: the half-inhibitory concentration (IC50) came to 61.7 nM against human KHK-C and 81.6 nM against human KHK-A. The same compound yielded a 50% effective concentration (EC50) in experiment [1] of 112 nM.
For `C[C@H]1CCN1c1nc2c(c(-c3cccc(C(C)(C)N)c3)n1)CCC2` [Example 190, 2-[3-[2-[(2S)-2-methylazetidin-1-yl]-6,7-dihydro-5H-cyclopenta[d]pyrimidin-4-yl]phenyl]propan-2-amine] the same measures were 40.8 nM, 48.7 nM and 28.1 nM.
For `C[C@H]1[C@H](O)CN1c1nc2c(c(-c3ccc(-c4ncc[nH]4)cc3)n1)CCC2` [Example 193, (2S,3R)-1-[4-[4-(1H-imidazol-2-yl)phenyl]-6,7-dihydro-5H-cyclopenta[d]pyrimidin-2-yl]-2-methyl-azetidin-3-ol] the same measures were 97.8 nM, 73.4 nM and 412 nM.
On the same counts, the results for `C[C@H]1[C@H](O)CN1c1nc2c(c(-c3ccc4c(c3)CNC4=O)n1)CCC2` [Example 196, 5-[2-[(2S,3R)-3-hydroxy-2-methyl-azetidin-1-yl]-6,7-dihydro-5H-cyclopenta[d]pyrimidin-4-yl]isoindolin-1-one] are 86.7 nM, 136 nM and 367 nM.
Regarding `C[C@H]1[C@H](F)CN1c1nc2c(c(-c3ccc(C(N)=O)cc3)n1)CCC2` [Example 200, 4-[2-[(2S,3R)-3-fluoro-2-methyl-azetidin-1-yl]-6,7-dihydro-5H-cyclopenta[d]pyrimidin-4-yl]benzamide], the figures for the IC50 on human KHK-C and at human KHK-A were 10.9 nM and 14.9 nM, respectively. In experiment [1], this compound came in with an EC50 of 49.3 nM.
